We go through 32 molecules from patent publication US20240376048A1 (Celgene Corporation, priority 2021, published 2024).

This assay deals with S1P5 (Homo sapiens, UniProt Q9H228). The assay can be described thus: [35S]-GTPγS binding assay (S1P5 agonism), CHO cell membranes. The following applies: membranes of CHO cells expressing recombinant S1P5 receptors, measure of S1P5 agonism. In kind it is biochemical. The protocol: CHO cells expressing recombinant S1P5 receptors were cultured in 500 cm^2 culture trays and, once confluent, rinsed and detached with cell-lifting buffer (10 mM HEPES, 154 mM NaCl, 6.85 mM EDTA, pH 7.4). Cells were then pelleted by centrifugation, resuspended, and homogenized in membrane preparation buffer (10 mM HEPES and 10 mM EDTA, pH 7.4) using a Polytron PT 1200E homogenizer (Kinematica, Luzern, Switzerland). Cellular proteins were pelleted by centrifugation at 48,000×g at 4° C. for 30 minutes. The resulting supernatant was discarded, and the pellet was re-suspended again in membrane preparation buffer, homogenized for a second time, and then centrifuged again as described above. The final cellular protein pellet was suspended in ice cold resuspension buffer (10 mM HEPES and 0.1 mM EDTA, pH 7.4), divided into aliquots, and stored at −80° C. until use.
Sequence of S1P5 (Q9H228 whole entry, species assumed): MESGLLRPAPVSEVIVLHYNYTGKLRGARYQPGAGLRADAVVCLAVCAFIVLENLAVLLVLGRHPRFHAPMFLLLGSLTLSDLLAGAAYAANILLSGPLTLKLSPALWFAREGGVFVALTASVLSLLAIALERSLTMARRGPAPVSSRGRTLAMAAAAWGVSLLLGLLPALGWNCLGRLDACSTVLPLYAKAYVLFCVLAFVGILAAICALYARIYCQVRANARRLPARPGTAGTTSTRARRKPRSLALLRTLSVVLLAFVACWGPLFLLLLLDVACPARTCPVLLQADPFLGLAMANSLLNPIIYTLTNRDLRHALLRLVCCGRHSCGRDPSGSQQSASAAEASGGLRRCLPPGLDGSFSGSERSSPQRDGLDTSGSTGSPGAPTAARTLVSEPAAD
Functional binding assays for [^35S]-GTPγS were performed in 96-well non-binding surface plates with a final volume of 200 μL. The test compounds were serially diluted in DMSO and added to assay plates using a Tecan D300E digital printer with a total volume of […]. The control sphingosine-1-phosphate (S1P) was prepared separately by preparing a 400 μM stock solution from a 100 nmol pellet of S1P in 10 mM Na2CO3 with 2% […]. The serial dilution of S1P was done using complete assay buffer (20 mM HEPES, 10 mM MgCl2, 100 mM NaCl, 1 mM EDTA, 0.1% fatty acid free bovine serum albumin (BSA), and 30 μg/mL saponin, pH 7.4) and transferred to wells already containing 0.4 μL DMSO. All the wells were then loaded to a total volume of 40 μL of complete assay buffer, except the non-specific binding (NSB) wells. For NSB wells, 40 μL/well of 50 μM GTPγS (Sigma Aldrich, cat #G8634, St. Louis, MO) was added to wells containing 0.4 μL of DMSO. The assay was started by the addition of 120 μL/well of CHO-SlP receptor membrane solution containing 40 μg/mL of membrane protein, 16.67 μM guanosine diphosphate (GDP; Sigma Aldrich, cat #G7127, St. Louis, MO), and 2.5 mg/mL of WGA PVT SPA beads in complete buffer. Assay plates were then sealed and incubated at room temperature with gentle agitation for 30 minutes. Next, 40 µL/well of 1 nM of [^35S]-GTPγS (PerkinElmer, cat #NEG030X25OUC, Waltham, MA) in basic assay buffer (20 mM HEPES, 10 mM MgCl2, 100 mM NaCl, and 1 mM EDTA, pH7.4) was added to the assay plates to yield a final concentration of 200 pM and the plates were further incubated for 40 minutes at room temperature with gentle agitation. The assay was terminated by centrifugation of the plates at 1000 rpm for 3 minutes using an Eppendorf 5810R centrifuge (Eppendorf, Hamburg, Germany) and G protein bound radioactivity was quantitated using a MicroBeta2 microplate scintillation counter (PerkinElmer, Waltham, MA). As G protein bound radioactivity directly correlates to receptor activation and coupling to the G protein, this assay is a measure of S1P5 agonism.
(GTPγS resists hydrolysis and so accumulates on activated G proteins.)

A value given as a limit tells only on which side of the number the result lay.

Broadly, the EC50 is the concentration that produces a half-maximal response.

For `O=C(O)C1CN(C2CCc3cc(OCc4ccc(C5CC5)c(Cl)c4)ccc32)C1` (centres unmarked) [Compound 10, 1-(5-((3-chloro-4-cyclopropylbenzyl)oxy)-2,3-dihydro-1H-inden-1-yl)azetidine-3-carboxylic acid], the EC50 was 10 to 100 nM.
Next, `O=C(O)C1CN(C2CCc3cc(OCc4ccc(I)cc4)ccc32)C1` (centres unmarked) [Compound 21, 1-(5-((4-iodobenzyl)oxy)-2,3-dihydro-1H-inden-1-yl)azetidine-3-carboxylic acid]: 100 to 1000 nM; `O=C(O)C1CC2(C1)CN(C1CCc3cc(OCc4c(Cl)cccc4Cl)ccc31)C2` (centres unmarked) [Compound 27, 2-(5-((2,6-dichlorobenzyl)oxy)-2,3-dihydro-1H-inden-1-yl)-2-azaspiro[3.3]heptane-6-carboxylic acid]: 1 to 10 nM.
The figure for `O=C(O)[C@@H]1CCN(C2CCc3cc(OCc4c(Cl)cccc4Cl)ccc32)C1` (single isomer, unassigned) [Compound 25b] is 1 to 10 nM; for `Cc1cc2c(cc1OCc1c(Cl)cccc1Cl)CCC2N1CCC(C(=O)O)CC1` (centres unmarked) [Compound 37, 1-(5-((2,6-dichlorobenzyl)oxy)-6-methyl-2,3-dihydro-1H-inden-1-yl)piperidine-4-carboxylic acid] it is 1 to 10 nM.
The figure for `Cc1ccc(COc2ccc3c(c2)CCC3N2CC(C(=O)O)C2)c(Cl)c1` (centres unmarked) [Compound 3, 1-(5-((2-chloro-4-methylbenzyl)oxy)-2,3-dihydro-1H-inden-1-yl)azetidine-3-carboxylic acid] is 1 to 10 nM.
For the molecule `O=C(O)C1CN(C2CCc3cc(OCc4cccc(F)c4)ccc32)C1` (centres unmarked) [Compound 12, 1-(5-((3-fluorobenzyl)oxy)-2,3-dihydro-1H-inden-1-yl)azetidine-3-carboxylic acid], the EC50 lay within 10 to 100 nM.
Consider `O=C(O)[C@H]1CCN(C2CCc3cc(OCc4c(Cl)cccc4Cl)ccc32)C1` (single isomer, unassigned) [Compound 24b], for which the EC50 was in the range of 1 to 10 nM.
The figure for `O=C(O)C1CN(C2CCc3cc(OCc4ccccc4F)ccc32)C1` (centres unmarked) [Compound 11, 1-(5-((2-fluorobenzyl)oxy)-2,3-dihydro-1H-inden-1-yl)azetidine-3-carboxylic acid] is 10 to 100 nM.
The figure for `CC1(C)CC(C(=O)O)CCN1C1CCc2cc(OCc3c(Cl)cccc3Cl)ccc21` (centres unmarked) [Compound 28, 1-(5-((2,6-dichlorobenzyl)oxy)-2,3-dihydro-1H-inden-1-yl)-2,2-dimethylpiperidine-4-carboxylic acid] is 10 to 100 nM; for `O=C(O)C1CN(C2CCc3cc(OCc4ccc(C5CC5)cc4F)ccc32)C1` (centres unmarked) [Compound 7, 1-(5-((4-cyclopropyl-2-fluorobenzyl)oxy)-2,3-dihydro-1H-inden-1-yl)azetidine-3-carboxylic acid] it is 10 to 100 nM; for `Cc1ccc(COc2ccc3c(c2)CCC3N2CC(C(=O)O)C2)cc1Cl` (centres unmarked) [Compound 1, 1-(5-((3-chloro-4-methylbenzyl)oxy)-2,3-dihydro-1H-inden-1-yl)azetidine-3-carboxylic acid] it is 1 to 10 nM.
The figure for `O=C(O)C1CN(C2CCc3cc(OCc4cc(F)c(F)cc4F)ccc32)C1` (centres unmarked) [Compound 17, 1-(5-((2,4,5-trifluorobenzyl)oxy)-2,3-dihydro-1H-inden-1-yl)azetidine-3-carboxylic acid] is 1 to 10 nM; for `Cc1cc(OCc2c(Cl)cccc2Cl)cc2c1C(N1CCC(C(=O)O)CC1)CC2` (centres unmarked) [Compound 35, 1-(5-((2,6-dichlorobenzyl)oxy)-7-methyl-2,3-dihydro-1H-inden-1-yl)piperidine-4-carboxylic acid] it is no more than 1 nM.
With `Cc1ccc(COc2ccc3c(c2)CCC3N2CC(C(=O)O)C2)c(F)c1` (centres unmarked) [Compound 4, 1-(5-((2-fluoro-4-methylbenzyl)oxy)-2,3-dihydro-1H-inden-1-yl)azetidine-3-carboxylic acid], the concentration giving a half-maximal response (EC50) was in the range of 10 to 100 nM.
For `CC1CC(C(=O)O)CC(C)N1C1CCc2cc(OCc3c(Cl)cccc3Cl)ccc21` (centres unmarked) [Compound 31, 1-(5-((2,6-dichlorobenzyl)oxy)-2,3-dihydro-1H-inden-1-yl)-2,6-dimethylpiperidine-4-carboxylic acid], the EC50 lay in the range of 10 to 100 nM.
Next, `O=C(O)C1CN(C2CCc3cc(OCc4ccc(F)c(F)c4)ccc32)C1` (centres unmarked) [Compound 19, 1-(5-((3,4-difluorobenzyl)oxy)-2,3-dihydro-1H-inden-1-yl)azetidine-3-carboxylic acid]: 10 to 100 nM; `O=C(O)C1CCN(C2CCc3cc(OCc4c(Cl)cccc4Cl)cc(F)c32)CC1` (centres unmarked) [Compound 32, 1-(5-((2,6-dichlorobenzyl)oxy)-7-fluoro-2,3-dihydro-1H-inden-1-yl)piperidine-4-carboxylic acid]: 1 to 10 nM; `CC1(C)CC(N2CCC(C(=O)O)CC2)c2ccc(OCc3c(Cl)cccc3Cl)cc21` (centres unmarked) [Compound 39]: 10 to 100 nM.
The figure for `O=C(O)C1CN(C2CCc3cc(OCc4ccc(C5CC5)c(C(F)(F)F)c4)ccc32)C1` (centres unmarked) [Compound 9, 1-(5-((4-cyclopropyl-3-(trifluoromethyl)benzyl)oxy)-2,3-dihydro-1H-inden-1-yl)azetidine-3-carboxylic acid] is 1 to 10 nM; for `O=C(O)[C@H]1CCN(C2CCc3cc(OCc4c(Cl)cccc4Cl)ccc32)C1` (single isomer, unassigned) [Compound 24a] it is 10 to 100 nM; for `O=C(O)[C@@H]1CCN(C2CCc3cc(OCc4c(Cl)cccc4Cl)ccc32)C1` (single isomer, unassigned) [Compound 25a] it is 1 to 10 nM.
Next, `Cc1c(OCc2c(Cl)cccc2Cl)ccc2c1CCC2N1CCC(C(=O)O)CC1` (centres unmarked) [Compound 36, 1-(5-((2,6-dichlorobenzyl)oxy)-4-methyl-2,3-dihydro-1H-inden-1-yl)piperidine-4-carboxylic acid]: no more than 1 nM; `O=C(O)C1CN(C2CCc3cc(OCc4ccc(F)cc4)ccc32)C1` (centres unmarked) [Compound 13, 1-(5-((4-fluorobenzyl)oxy)-2,3-dihydro-1H-inden-1-yl)azetidine-3-carboxylic acid]: 10 to 100 nM; `O=C(O)C1CN(C2CCc3cc(OCc4cccc(I)c4)ccc32)C1` (centres unmarked) [Compound 20, 1-(5-((3-iodobenzyl)oxy)-2,3-dihydro-1H-inden-1-yl)azetidine-3-carboxylic acid]: 10 to 100 nM.
In the case of `O=C(O)C1CN(C2CCc3cc(OCc4cc(F)cc(F)c4F)ccc32)C1` (centres unmarked) [Compound 18, 1-(5-((2,3,5-trifluorobenzyl)oxy)-2,3-dihydro-1H-inden-1-yl)azetidine-3-carboxylic acid], the EC50 fell in the range of 10 to 100 nM.
For `O=C(O)C1CN(C2CCc3cc(OCc4ccc(F)c(Cl)c4)ccc32)C1` (centres unmarked) [Compound 16, 1-(5-((3-chloro-4-fluorobenzyl)oxy)-2,3-dihydro-1H-inden-1-yl)azetidine-3-carboxylic acid], the EC50 lay in the range of 10 to 100 nM.
On to `CC1CC(N2CCC(C(=O)O)CC2)c2ccc(OCc3c(Cl)cccc3Cl)cc21` (centres unmarked) [Compound 38, 1-(5-((2,6-dichlorobenzyl)oxy)-3-methyl-2,3-dihydro-1H-inden-1-yl)piperidine-4-carboxylic acid], for which the EC50 lay in the range of 1 to 10 nM.
As to `O=C(O)C1CCN(C2CCc3cc(OCc4c(Cl)cccc4Cl)c(F)cc32)CC1` (centres unmarked) [Compound 33, 1-(5-((2,6-dichlorobenzyl)oxy)-6-fluoro-2,3-dihydro-1H-inden-1-yl)piperidine-4-carboxylic acid], the EC50 was in the range of 1 to 10 nM.
Regarding `CC(C)Oc1ccc(COc2ccc3c(c2)CCC3N2CC(C(=O)O)C2)cc1C#N` (centres unmarked) [Compound 6, 1-(5-((3-cyano-4-isopropoxybenzyl)oxy)-2,3-dihydro-1H-inden-1-yl)azetidine-3-carboxylic acid], the EC50 lay within 10 to 100 nM.
The figure for `CC1CC(C(=O)O)CCN1C1CCc2cc(OCc3c(Cl)cccc3Cl)ccc21` (centres unmarked) [Compound 30, 1-(5-((2,6-dichlorobenzyl)oxy)-2,3-dihydro-1H-inden-1-yl)-2-methylpiperidine-4-carboxylic acid] is 10 to 100 nM; for `CC1(C(=O)O)CCN(C2CCc3cc(OCc4c(Cl)cccc4Cl)ccc32)CC1` (centres unmarked) [Compound 29, 1-(5-((2,6-dichlorobenzyl)oxy)-2,3-dihydro-1H-inden-1-yl)-4-methylpiperidine-4-carboxylic acid] it is 10 to 100 nM.
